Test results: publication PMC9699003, “Arene Variation of Highly Cytotoxic Tridentate Naphthoquinone-Based Ruthenium(II) Complexes and In-Depth In Vitro Studies” (Pharmaceutics, 2022)

What was measured:
[1] = tested on: A549 non-small cell lung cancer cells; test: MTT assay (cytotoxicity); assay type: cell-based, human; conditions: Homo sapiens, 24 h exposure
How it was run: (§1)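 Cells in supplemented MEM were exposed 24 h or 96 h to nine two-fold serial dilutions (DMSO stocks 20 or 40 mM), in triplicate. Viability by MTT conversion for 4 h, formazan dissolved in DMSO, absorbance at 550 nm (690 nm reference); IC50 interpolated from blank-corrected OD, ≥3 independent experiments.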

[2] = tested on: CH1/PA-1 ovarian teratocarcinoma cells; test: MTT assay (cytotoxicity); assay type: cell-based, human; conditions: Homo sapiens; CH1/PA-1, MTT, 24 h exposure
How it was run: as §1

[3] = tested on: SW480 colon carcinoma cells; test: MTT assay (cytotoxicity); assay type: cell-based, human; conditions: Homo sapiens, 24 h exposure
How it was run: as §1

CH1/PA-1 cells = test: Cell cycle distribution (PI staining, flow cytometry); assay type: cell-based, human; conditions: CH1/PA-1, 24 h
Experimental: (§2) For the flow-cytometric determination of cell cycle distribution, CH1/PA-1 (8 × 10^4 cells/well) and SW480 (1.2 × 10^5 cells/well) cells were seeded into 12-well plates (CytoOne, tissue culture treated) in 1 mL supplemented MEM. In the first 24 h, the cells were allowed to settle and resume exponential growth. […] Gemcitabine (Sigma-Aldrich, 0.01 and 0.05 µM) and etoposide (Sigma-Aldrich, 0.25, 0.5 and 1 µM) were used as positive controls. After removal of the treatment medium, cells were washed with 1 mL PBS and trypsinized. Cells were collected in Eppendorf tubes and centrifuged (300 g, 3 min), and the supernatant was discarded. In the following step, cells were washed with 1 mL PBS and resuspended in 500 µL PI/HFS buffer (0.1% v/v Triton X-100, 0.1% w/v sodium citrate, in PBS) containing 25 µg/mL propidium iodide (PI, 1.0 mg/mL, Sigma-Aldrich). The staining was carried out overnight at 4 °C in the dark, and 200 µL of the cell suspension was loaded into 96-well round bottom plates (Falcon). Samples were measured with a Millipore Guava easyCyte 8HT flow cytometer with GuavaSoft™ software in the InCyte-modus, and 10,000 events/sample were detected. Data were analyzed with FlowJo software v 10.8.1 (Tree Star, Ashland, OR, USA) using Watson algorithm. Percentages of cells in the three cell cycle phases (G1/G0, S and G2/M) were calculated by integrating the resulting histograms of fluorescence signals (Figures S29 and S30). Experiments were repeated at least three times. For statistical evaluation, an unpaired t-test with Welch’s correction was performed by using GraphPad PRISM software.

SW480 cells [4] = test: as above; assay type: cell-based, human; conditions: SW480, 24 h
Experimental: as §2

SW480 cells [5] = test: Apoptosis assay (annexin V-FITC/PI, flow cytometry); conditions: SW480, 24 h; for early apoptotic cells / late apoptotic cells / necrotic cells: mean ± SD
Experimental: Cell death induction was quantitatively analyzed via flow cytometry using double staining with FITC-conjugated annexin V (eBioscience, San Diego, CA, USA) and propidium iodide (PI, 1.0 mg/mL, Sigma-Aldrich). SW480 cells were seeded into 24-well plates (7 × 10^4 cells/well) in 600 µL MEM per well and allowed to settle for 24 h. Afterward, cells were exposed to two or three different concentrations (0.1–100 µM) of the compounds (based on their cytotoxic activity) for 24 h. After treatment, the medium was collected, and cells were washed once with 37 °C warm PBS and harvested. Following trypsinization, the cell suspension was added to the pre-collected medium and cells were centrifuged (300 g, 3 min). The supernatant was removed, and the cell pellet was resuspended with 1.5 µL FITC-conjugated annexin V in 150 µL binding buffer (10 mM HEPES/NaOH pH 7.4, 140 mM NaCl and 2.5 mM CaCl2) and incubated at 37 °C for 15 min. An amount of 1 µL of propidium iodide (PI, Thermo Fisher) was added shortly before flow-cytometric analysis using a Guava easyCyte 8HT instrument (Merck Millipore, Burlington, MA, USA) with InCyte software. Results were quantified by using the FlowJo software (TreeStar). At least three independent experiments were conducted.

[6] = Homo sapiens, read-out: viable cells

**Q.** What does the source list for CC1=C(O)C(=O)c2ccccc2C1=O [L, 2-Hydroxy-3-methyl-1,4-naphthoquinone]?
**A.** IC50 [1]: > 400 µM; IC50 [2]: > 400 µM; IC50 [3]: > 400 µM; Cells in G1/G0 phase (CH1/PA-1 cells; 100 µM): 37.0 ± 0.3%; Cells in G2/M phase (CH1/PA-1 cells; 100 µM): 22.9 ± 2.8%; Cells in S phase (CH1/PA-1 cells; 100 µM): 41.4 ± 2.4%; Cells in G1/G0 phase (CH1/PA-1 cells; 150 µM): 40.8 ±1.7%; Cells in G2/M phase (CH1/PA-1 cells; 150 µM): 19.3 ± 1.9%; Cells in S phase (CH1/PA-1 cells; 150 µM): 42.1 ± 2.7%; Cells in G1/G0 phase (CH1/PA-1 cells; 200 µM): 47.2 ± 1.7%; Cells in G2/M phase (CH1/PA-1 cells; 200 µM): 16.8 ± 8.9%; Cells in S phase (CH1/PA-1 cells; 200 µM): 37.6 ± 3.5%; Cells in G1/G0 phase (SW480 cells [4]; 50 µM): 47.4 ± 2.0%; Cells in G2/M phase (SW480 cells [4]; 50 µM): 14.5 ± 0.5%; Cells in S phase (SW480 cells [4]; 50 µM): 38.8 ± 1.7%; Cells in G1/G0 phase (SW480 cells [4]; 100 µM): 51.5 ± 5.0%; Cells in G2/M phase (SW480 cells [4]; 100 µM): 12.1 ± 0.4%; Cells in S phase (SW480 cells [4]; 100 µM): 35.9 ± 3.4%; Cells in G1/G0 phase (SW480 cells [4]; 150 µM): 52.0 ± 2.9%; Cells in G2/M phase (SW480 cells [4]; 150 µM): 11.3 ± 0.5%; Cells in S phase (SW480 cells [4]; 150 µM): 36.3 ± 2.2%; Cell cycle perturbation (in words) (SW480 cells [4]; tested concentrations): did not show any cell cycle perturbation; viability at 10 µM (SW480 cells [5]; [6]): 97 ± 1%; viability at 100 µM (SW480 cells [5]; [6]): 96%; early apoptotic cells (SW480 cells [5]; 10 µM): 1.0 ± 0.5%; late apoptotic cells (SW480 cells [5]; 10 µM): 1.6 ± 0.2%; necrotic cells (SW480 cells [5]; 10 µM): 0.61 ± 0.44%; early apoptotic cells (SW480 cells [5]; 100 µM): 1.0 ± 0.2%; late apoptotic cells (SW480 cells [5]; 100 µM): 1.9 ± 0.2%; necrotic cells (SW480 cells [5]; 100 µM): 0.86 ± 0.33%; Apoptosis / necrosis induction (in words) (SW480 cells [5]; concentrations covering the IC50 range): did not induce any of these processes
